Measured values as given in patent US9233929B2, “Fungicide N-cycloalkyl-N-bicyclimethylene-carboxamide derivatives” (priority 2009, dated 2016).

Experiment: logP
Type: physicochemical

| Structure (SMILES) | logP |
| --- | --- |
| Cc1nn(C)c(F)c1C(=S)N(C1CC1)C(C)C1CCCc2ccccc21 (centres unmarked) [I.3, N-cyclopropyl-5-fluoro-1,3-dimethyl-N-[1-(1,2,3,4-tetrahydronaphthalen-1-yl)ethyl]-1H-pyrazole-4-carbothioamide] | 4.39 |
| CC(N(C(=O)c1cn(C)nc1C(F)F)C1CC1)C1(O)CCCc2ccccc21 (centres unmarked) [I.10, N-cyclopropyl-3-(difluoromethyl)-N-[1-(1-hydroxy-1,2,3,4-tetrahydronaphthalen-1-yl)ethyl]-1-methyl-1H-pyrazole-4-carboxamide] | 2.94 |
